# Molecular target: human orexin 2 receptor (Homo sapiens (Human), UniProt O43614)
# Assay: Human orexin 2 receptor Ca2+ mobilization assay (FLIPR, PFSK cells, orexin B 100 nM)
# Assay type: cell-based
# Settings: modified Cheng-Prusoff correction, read-out: OR 2 Kb
# Chain of human orexin 2 receptor (O43614 whole entry): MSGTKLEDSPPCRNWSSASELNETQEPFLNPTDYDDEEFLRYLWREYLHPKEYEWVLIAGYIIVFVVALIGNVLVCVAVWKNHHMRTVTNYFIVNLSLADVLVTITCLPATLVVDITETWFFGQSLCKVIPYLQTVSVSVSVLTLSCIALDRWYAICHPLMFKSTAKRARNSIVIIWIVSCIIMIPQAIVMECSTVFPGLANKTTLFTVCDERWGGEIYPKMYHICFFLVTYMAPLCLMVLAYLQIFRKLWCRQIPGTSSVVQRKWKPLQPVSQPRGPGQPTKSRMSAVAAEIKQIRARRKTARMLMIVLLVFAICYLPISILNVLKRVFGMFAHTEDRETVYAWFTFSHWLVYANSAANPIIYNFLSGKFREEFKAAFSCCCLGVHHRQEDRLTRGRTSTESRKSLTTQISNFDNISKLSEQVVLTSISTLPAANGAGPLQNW
row,SMILES,Kb [nM]
1,"Cc1cc(C)nc(N2CC3CN(C(=O)c4ccccc4-c4ccccn4)CC3C2)n1 (centres unmarked) [Example 69, 2-(4,6-Dimethylpyrimidin-2-yl)-5-[(2-pyridin-2-ylphenyl)carbonyl]octahydro-pyrrolo[3,4-c]pyrrole]",8
2,"CCOc1ccc2ccccc2c1C(=O)N1CC2CN(c3cnc4ccccc4n3)CC2C1 (centres unmarked) [Example 145, 2-{5-[(2-Ethoxynaphthalen-1-yl)carbonyl]hexahydropyrrolo[3,4-c]pyrrol-2(1H)-yl}quinoxaline]",32
3,"COc1ccnc(N2CC3CN(C(=O)c4ccccc4-c4cccs4)CC3C2)n1 (centres unmarked) [Example 45, 2-(4-Methoxypyrimidin-2-yl)-5-[(2-thiophen-2-ylphenyl)carbonyl]octahydro-pyrrolo[3,4-c]pyrrole]",10
4,"Cc1ccc(-c2ncccn2)c(C(=O)N2CC3CN(c4cc(C)nc(C(F)(F)F)n4)CC3C2)c1 (centres unmarked) [Example 112, 2-[(5-Methyl-2-pyrimidin-2-ylphenyl)carbonyl]-5-[6-methyl-2-(trifluoromethyl)pyrimidin-4-yl]octahydropyrrolo[3,4-c]pyrrole]",20
5,"Cc1cc(C)nc(N2CC3CN(C(=O)c4ccccc4-c4cccc(F)c4)CC3C2)n1 (centres unmarked) [Example 52, 2-(4,6-Dimethylpyrimidin-2-yl)-5-[(3′-fluorobiphenyl-2-yl)carbonyl]octahydro-pyrrolo[3,4-c]pyrrole]",50
6,"O=C(c1ccccc1-c1cccs1)N1CC2CN(c3nccc(-c4ccccc4)n3)CC2C1 (centres unmarked) [Example 22, 2-(4-Phenylpyrimidin-2-yl)-5-[(2-thiophen-2-ylphenyl)carbonyl]octahydro-pyrrolo[3,4-c]pyrrole]",158
7,"CCOc1ccc2ccccc2c1C(=O)N1CC2CN(c3nccc(OC)n3)CC2C1 (centres unmarked) [Example 56, 2-[(2-Ethoxynaphthalen-1-yl)carbonyl]-5-(4-methoxypyrimidin-2-yl)octahydropyrrolo[3,4-c]pyrrole]",40
8,"Cc1noc(-c2ccccc2C(=O)N2CC3CN(c4nc(C)c5c(n4)CCC5)CC3C2)n1 (centres unmarked) [Example 319, 4-Methyl-2-[5-{[2-(3-methyl-1,2,4-oxadiazol-5-yl)phenyl]carbonyl}hexahydropyrrolo[3,4-c]pyrrol-2(1H)-yl]-6,7-dihydro-5H-cyclopenta[d]pyrimidine]",7
9,"Cc1cc(C)nc(N2CC3CN(C(=O)c4cccc5ccccc45)CC3C2)n1 (centres unmarked) [Example 93, 2-(4,6-Dimethylpyrimidin-2-yl)-5-(naphthalen-1-ylcarbonyl)octahydropyrrolo[3,4-c]pyrrole]",40
10,"Cc1cnc(C)c(N2CC3CN(C(=O)c4ccccc4-c4cccs4)CC3C2)n1 (centres unmarked) [Example 63, 2-(3,6-Dimethylpyrazin-2-yl)-5-[(2-thiophen-2-ylphenyl)carbonyl]octahydro-pyrrolo[3,4-c]pyrrole]",20
11,"Cc1cc(N2CC3CN(C(=O)c4cc(F)ccc4-c4ncccn4)CC3C2)nc(C(F)(F)F)n1 (centres unmarked) [Example 204, (5-Fluoro-2-pyrimidin-2-yl-phenyl)-[5-(6-methyl-2-trifluoromethyl-pyrimidin-4-yl)-hexahydro-pyrrolo[3,4-c]pyrrol-2-yl]-methanone]",20
12,"O=C(c1ccccc1-c1cccs1)N1CC2CN(c3nc4ccccc4o3)CC2C1 (centres unmarked) [Example 139, 2-{5-[(2-Thiophen-2-ylphenyl)carbonyl]hexahydropyrrolo[3,4-c]pyrrol-2(1H)-yl}-1,3-benzoxazole]",63
13,"O=C(c1ccccc1-c1nnc[nH]1)N1CC2CN(c3cnc4ccccc4n3)CC2C1 (centres unmarked) [Example 85, 2-[5-{[2-(4H-1,2,4-Triazol-3-yl)phenyl]carbonyl}hexahydropyrrolo[3,4-c]pyrrol-2(1H)-yl]quinoxaline]",63
14,"O=C(c1ccccc1-c1cccs1)N1CC2CN(c3nccc(-c4cn[nH]c4)n3)CC2C1 (centres unmarked) [Example 62, 2-[4-(1H-Pyrazol-4-yl)pyrimidin-2-yl]-5-[(2-thiophen-2-ylphenyl)carbonyl]octahydro-pyrrolo[3,4-c]pyrrole]",40
15,"COc1cc(OC)nc(N2CC3CN(C(=O)c4ccccc4-c4cccs4)CC3C2)n1 (centres unmarked) [Example 138, 2-(4,6-Dimethoxypyrimidin-2-yl)-5-[(2-thiophen-2-ylphenyl)carbonyl]octahydro pyrrolo[3,4-c]pyrrole]",40

# More lines, now with the values ahead:
row,Kb [nM],SMILES
1,32,"CN(C)c1nc(N2CC3CN(C(=O)c4cc(F)ccc4-n4nccn4)CC3C2)cc(C(F)(F)F)n1 (centres unmarked) [Example 110, 4-[5-{[5-Fluoro-2-(2H-1,2,3-triazol-2-yl)phenyl]carbonyl}hexahydropyrrolo[3,4-c]pyrrol-2(1H)-yl]-N, N-dimethyl-6-(trifluoromethyl)pyrimidin-2-amine]"
2,7,"COc1ccc(-n2nccn2)c(C(=O)N2CC3CN(c4nc(C)c(C)c(C)n4)CC3C2)c1 (centres unmarked) [Example 241, (5-Methoxy-2-(2H-1,2,3-triazol-2-yl)phenyl)(5-(4,5,6-trimethylpyrimidin-2-yl)hexahydropyrrolo[3,4-c]pyrrol-2(1H)-yl)methanone]"
3,32,"Cc1cc(C)nc(N2CC3CN(C(=O)c4c(C)ccc5ccccc45)CC3C2)n1 (centres unmarked) [Example 47, 2-(4,6-Dimethylpyrimidin-2-yl)-5-[(2-methylnaphthalen-1-yl)carbonyl]octahydro-pyrrolo[3,4-c]pyrrole]"
4,32,"Cc1ccc(-c2ncccn2)c(C(=O)N2CC3CN(c4nc(C)cnc4C)CC3C2)c1 (centres unmarked) [Example 103, 2-(3,6-Dimethylpyrazin-2-yl)-5-[(5-methyl-2-pyrimidin-2-ylphenyl)carbonyl]octahydropyrrolo[3,4-c]pyrrole]"
5,16,"COc1ccnc(N2CC3CN(C(=O)c4ccccc4-n4nccn4)CC3C2)n1 (centres unmarked) [Example 156, 2-(4-Methoxypyrimidin-2-yl)-5-{[2-(2H-1,2,3-triazol-2-yl)phenyl]carbonyl}octa hydropyrrolo[3,4-c]pyrrole]"
6,20,"COc1cc(OC)nc(N2CC3CN(C(=O)c4ccc(F)cc4-n4nccn4)CC3C2)n1 (centres unmarked) [Example 160, 2-(4,6-Dimethoxypyrimidin-2-yl)-5-{[4-fluoro-2-(2H-1,2,3-triazol-2-yl)phenyl]carbonyl}octahydropyrrolo[3,4-c]pyrrole]"
7,16,"CN(C)c1cc(N2CC3CN(C(=O)c4ccccc4-n4nccn4)CC3C2)nc(C(F)(F)F)n1 (centres unmarked) [Example 2, N,N-Dimethyl-6-[5-{[2-(2H-1,2,3-triazol-2-yl)phenyl]carbonyl}hexahydropyrrolo[3,4-c]pyrrol-2(1H)-yl]-2-(trifluoromethyl)pyrimidin-4-amine]"
8,100,"COc1cc(OC)nc(N2CC3CN(C(=O)c4cc(C)ccc4-n4nccn4)CC3C2)n1 (centres unmarked) [Example 129, 2-(4,6-Dimethoxypyrimidin-2-yl)-5-{[5-methyl-2-(2H-1,2,3-triazol-2-yl)phenyl]carbonyl}octahydropyrrolo[3,4-c]pyrrole]"
9,40,"Cc1cc(C)nc(N2CC3CN(C(=O)c4cccc5cccc(-n6nccn6)c45)CC3C2)n1 (centres unmarked) [Example 328, [5-(4,6-Dimethyl-pyrimidin-2-yl)-hexahydro-pyrrolo[3,4-c]pyrrol-2-yl]-(8-[1,2,3]triazol-2-yl-naphthalen-1-yl)-methanone]"
10,40,"O=C(c1ccccc1-n1nccn1)N1CC2CN(c3nccc(C(F)(F)F)n3)CC2C1 (centres unmarked) [Example 153, 2-{[2-(2H-1,2,3-Triazol-2-yl)phenyl]carbonyl}-5-[4-(trifluoromethyl)pyrimidin-2-yl]octahydropyrrolo[3,4-c]pyrrole]"
11,5,"COc1ccc(C(=O)N2CC3CN(c4nc(C)c(F)c(C)n4)CC3C2)c(-n2nccn2)c1 (centres unmarked) [Example 379, 2-(5-Fluoro-4,6-dimethylpyrimidin-2-yl)-5-{[4-methoxy-2-(2H-1,2,3-triazol-2-yl)phenyl]carbonyl}octahydropyrrolo[3,4-c]pyrrole]"
12,13,"Cc1cc(N(C)C)nc(N2CC3CN(C(=O)c4ccccc4-n4nccn4)CC3C2)n1 (centres unmarked) [Example 119, N,N,6-Trimethyl-2-[5-{[2-(2H-1,2,3-triazol-2-yl)phenyl]carbonyl}hexahydropyrrolo[3,4-c]pyrrol-2(1H)-yl]pyrimidin-4-amine]"
13,12,"Cc1ccc(-c2c(F)cccc2C(=O)N2CC3CN(c4nc(C)cc(C)n4)CC3C2)nc1 (centres unmarked) [Example 374, (5-(4,6-Dimethylpyrimidin-2-yl)hexahydropyrrolo[3,4-c]pyrrol-2(1H)-yl)(3-fluoro-2-(5-methylpyridin-2-yl)phenyl)methanone]"
14,40,"Cc1ccnc(N2CC3CN(C(=O)c4ccccc4-n4nccn4)CC3C2)n1 (centres unmarked) [Example 135, 2-(4-Methylpyrimidin-2-yl)-5-{[2-(2H-1,2,3-triazol-2-yl)phenyl]carbonyl}octahydro pyrrolo[3,4-c]pyrrole]"
15,79,"Cc1ccc(-n2nccn2)c(C(=O)N2CC3CN(c4nc(C)cnc4C)CC3C2)c1 (centres unmarked) [Example 123, [5-(3,6-Dimethyl-pyrazin-2-yl)-hexahydro-pyrrolo[3,4-c]pyrrol-2-yl]-(5-methyl-2-[1,2,3]triazol-2-yl-phenyl)-methanone]"
16,79,"O=C(c1ccccc1-n1nccn1)N1CC2CN(c3nccc(-c4cccs4)n3)CC2C1 (centres unmarked) [Example 143, 2-(4-Thiophen-2-ylpyrimidin-2-yl)-5-{[2-(2H-1,2,3-triazol-2-yl)phenyl]carbonyl}octahydropyrrolo[3,4-c]pyrrole]"
17,15,"Cc1noc(-c2ccccc2C(=O)N2CC3CN(c4ncc(F)c(C)n4)CC3C2)n1 (centres unmarked) [Example 310, 2-(5-Fluoro-4-methylpyrimidin-2-yl)-5-{[2-(3-methyl-1,2,4-oxadiazol-5-yl)phenyl]carbonyl}octahydropyrrolo[3,4-c]pyrrole]"
18,63,"CCOc1cccc(N2CC3CN(C(=O)c4ccccc4-n4nccn4)CC3C2)n1 (centres unmarked) [Example 147, 2-(6-Ethoxypyridin-2-yl)-5-{[2-(2H-1,2,3-triazol-2-yl)phenyl]carbonyl}octahydro pyrrolo[3,4-c]pyrrole]"
19,5,"CCc1c(C)nc(N2CC3CN(C(=O)c4ccccc4-c4ncn(C)n4)CC3C2)nc1C (centres unmarked) [Example 322, 2-(5-Ethyl-4,6-dimethylpyrimidin-2-yl)-5-{[2-(1-methyl-1H-1,2,4-triazol-3-yl)phenyl]carbonyl}octahydropyrrolo[3,4-c]pyrrole]"
20,3,"Cc1cc(C)nc(N2CC3CN(C(=O)c4cccc(F)c4-c4ccccn4)CC3C2)n1 (centres unmarked) [Example 472, (5-(4,6-dimethylpyrimidin-2-yl)hexahydropyrrolo[3,4-c]pyrrol-2(1H)-yl)(3-fluoro-2-(pyridin-2-yl)phenyl)methanone]"

# Reference: patent publication US9586962B2, “Disubstituted octahydropyrrolo [3,4-C] pyrroles as orexin receptor modulators” (Janssen Pharmaceutica NV, priority 2011, dated 2017)
